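Where inhibition never reached the appropriate level, the endpoint shown equals the highest concentration tested. Otherwise, values were interpolated linearly from a five-concentration, 48-hour dose response in 96-well plates. Here, GI50 denotes the concentration required for 50% inhibition of growth. TGI: concentration producing complete growth inhibition.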
Assays:
Test in all cases: NCI anticancer screen, dose series, 48 h
SK-OV-3 ovarian = tested on: SK-OV-3 ovarian
U251 CNS = tested on: U251 CNS
HOP-92 NSCLC = tested on: HOP-92 NSCLC
SNB-75 CNS = tested on: SNB-75 CNS
K-562 leukemia = tested on: K-562 leukemia
SF-539 CNS = tested on: SF-539 CNS
SR leukemia = tested on: SR leukemia
SK-MEL-5 melanoma = tested on: SK-MEL-5 melanoma
BT-549 breast = tested on: BT-549 breast
MDA-MB-231 breast = tested on: MDA-MB-231 breast

Structure (SMILES) | TGI (SK-OV-3 ovarian) | TGI (U251 CNS) | TGI (HOP-92 NSCLC) | TGI (SNB-75 CNS) | TGI (K-562 leukemia) | TGI (SF-539 CNS) | TGI (SR leukemia) | TGI (SK-MEL-5 melanoma) | GI50 (SK-OV-3 ovarian) | GI50 (BT-549 breast) | TGI (BT-549 breast) | GI50 (U251 CNS) | GI50 (MDA-MB-231 breast) | TGI (MDA-MB-231 breast) | GI50 (HOP-92 NSCLC) | GI50 (SK-MEL-5 melanoma) | GI50 (K-562 leukemia) | GI50 (SF-539 CNS) | GI50 (SR leukemia) | GI50 (SNB-75 CNS)
CCC(=O)C12OC3OC(C)(C)OC3C1OC(C)(C)O2 (stereo unspecified) | > 100 µM | > 100 µM | > 100 µM | > 100 µM | > 100 µM | > 100 µM | > 100 µM |  |  |  |  |  |  |  |  |  |  |  |  | 
N#CC(C#N)=C1NC(=O)CC(=O)N1 | > 100 µM | > 100 µM | > 100 µM | > 100 µM | > 100 µM | > 100 µM | > 100 µM | > 100 µM |  |  |  |  |  |  |  |  |  |  |  | 
Fc1ccc(C2SCc3nc4ccccc4n32)c(F)c1 (stereo unspecified) | > 100 µM | > 100 µM | 92.4 µM | > 100 µM | > 100 µM | > 100 µM | > 100 µM | 79.6 µM |  |  |  |  |  |  |  |  |  |  |  | 
O=C1/C(=C/c2ccccc2[N+](=O)[O-])Cc2ccccc21 | 38.4 µM | 10.6 µM | 3.36 µM |  | > 100 µM | 5.94 µM | > 100 µM | 14 µM | 6.86 µM | 1.83 µM | 4.49 µM | 2.89 µM | 1.7 µM | 6.2 µM | 1.22 µM | 3.11 µM | 3.4 µM | 2.15 µM | 0.495 µM | 
CCCP1(=O)C=C(C)C(=C(Cl)Cl)C(C)=C1 (stereo unspecified) |  | > 100 µM | 89.6 µM |  | > 100 µM | > 100 µM | 77.4 µM | 49.1 µM |  |  |  |  |  |  |  |  |  |  |  | 
CC1(O)C=CC(=O)C=C1 | > 100 µM | 48.1 µM | > 100 µM | > 100 µM | > 100 µM | 54.9 µM | 61.2 µM | > 89.4 µM |  |  |  |  |  |  |  |  |  |  |  | 
N#CC(=C1C=CC(=NO)C=C1)c1ccc(Cl)cc1 | 48.9 µM | 34.3 µM | 44.8 µM | > 100 µM |  | 25.4 µM | 43.5 µM | 21.3 µM |  |  |  |  |  |  |  |  |  |  |  | 
COc1ccc(-c2cc(Cc3cccs3)c(=O)[nH]n2)cc1 | > 100 µM | > 100 µM | > 100 µM | > 100 µM |  | > 100 µM |  | 49.5 µM |  |  |  |  |  |  |  |  |  |  |  | 
COc1cc(C(=O)C/C(CCC(=O)Nc2ccccc2[N+](=O)[O-])=N\NC(N)=O)ccc1O | > 100 µM | > 100 µM | > 100 µM | > 100 µM | > 100 µM | > 100 µM | > 100 µM | > 100 µM |  |  |  |  |  |  |  |  |  |  |  | 
CS(=O)(=O)c1ccc(-c2cc(-c3ccc(S(C)(=O)=O)cc3)[n+](-c3cc(-c4ccc(S(C)(=O)=O)cc4)c([O-])c(-c4ccc(S(C)(=O)=O)cc4)c3)c(-c3ccc(S(C)(=O)=O)cc3)c2)cc1 |  | > 100 µM |  | > 100 µM | > 100 µM | > 100 µM | > 100 µM | > 100 µM |  |  |  |  |  |  |  |  |  |  |  | 
CC(=O)OC12C=C(C)C(C(C)C1)C1C(=O)N(CCN3CCOCC3)C(=O)C12 (stereo unspecified) | > 100 µM | > 100 µM | > 100 µM | > 100 µM | > 100 µM | > 100 µM |  | > 100 µM | > 100 µM | > 100 µM | > 100 µM | > 100 µM | > 100 µM | > 100 µM | > 100 µM | > 100 µM | > 100 µM | > 100 µM |  | > 100 µM
COc1ccc(C=O)c([N+](=O)[O-])c1 | > 100 µM | > 100 µM | > 100 µM | > 100 µM | 36 µM | 47.2 µM |  | > 100 µM |  |  |  |  |  |  |  |  |  |  |  | 
O=C(/C=C\c1cccc([N+](=O)[O-])c1)/C=C/c1cccc([N+](=O)[O-])c1 | > 100 µM | 5.21 µM | 43.9 µM | 66.6 µM |  | > 100 µM |  | > 100 µM | 20 µM | 3.48 µM | 12.5 µM | 2.06 µM | 14.4 µM | > 100 µM | 9.92 µM | 61.3 µM |  | 7.89 µM |  | 13.3 µM
OCC1OC(n2cnc3c(N/N=C\c4ccccn4)ncnc32)C(O)C1O (stereo unspecified) | 2.97 µM | > 100 µM |  | 12.9 µM | > 100 µM | 2.27 µM | > 87.7 µM | 2.29 µM | 0.239 µM | 0.256 µM | 23 µM | 0.4 µM | 0.0781 µM | > 57.3 µM |  | 0.398 µM | 0.368 µM | 0.318 µM | 0.0387 µM | 0.613 µM
CN(N=O)C(=O)ON1C(=O)CCC1=O | > 100 µM |  | > 100 µM | > 100 µM | > 100 µM | > 100 µM |  | > 100 µM |  |  |  |  |  |  |  |  |  |  |  | 
NNC(=O)CS(=O)(=O)Nc1ncccn1 | > 100 µM | > 100 µM | > 100 µM | > 100 µM | > 100 µM | > 100 µM |  | > 100 µM |  |  | > 100 µM |  |  | > 100 µM |  |  |  |  |  | 
C#C[C@]1(O)CCCC2=CC(=O)CC[C@@]21C | > 100 µM | > 100 µM | > 100 µM |  | > 100 µM | > 100 µM | > 100 µM | > 100 µM |  |  |  |  |  |  |  |  |  |  |  | 
O=C1C(=C([O-])c2ccccc2)C(=O)c2ccccc21.O=C1C(=C([O-])c2ccccc2)C(=O)c2ccccc21.[Fe+2] | > 100 µM | > 100 µM | 38.6 µM | > 100 µM | > 100 µM | > 100 µM |  | > 100 µM | > 100 µM |  |  | 54.9 µM |  |  | 16.1 µM | > 100 µM | 84.9 µM | > 100 µM |  | 61.5 µM
CCN(CC)CC1c2ccccc2C(CNc2ccccc2)N1C (stereo unspecified) | > 100 µM |  | > 100 µM | > 100 µM | > 100 µM |  |  | > 100 µM |  |  |  |  |  |  |  |  |  |  |  | 
Fc1ccc(/C=N/n2c(-c3ccc(F)c(Cl)c3)nn(CNc3ccccc3C(F)(F)F)c2=S)cc1 | > 100 µM | > 100 µM | 63.8 µM | > 100 µM | > 100 µM | > 100 µM | > 100 µM | > 100 µM | > 100 µM |  |  | 69.1 µM | 67 µM | > 100 µM | 17.6 µM | 33 µM | 37.6 µM | 93.2 µM | 31.2 µM | > 100 µM
COc1ccc(-c2[nH]c3ccccc3c2-c2ccc(OC)cc2)cc1 | 26.6 µM | 16.8 µM | 9.4 µM | 6.61 µM | 10.4 µM | 10.4 µM |  | 15.2 µM | 5.85 µM |  |  | 4.54 µM | 4.69 µM | 23.5 µM | 2.24 µM | 3.65 µM | 2.89 µM | 3.05 µM |  | 1.47 µM
